A short description of data set [1]: Chronic exposure: daily oral mixture for 17 wk, steady-state serum concentrations. The note with it: for concentration at 17 wk: female, New Zealand white (INRA 1777 line), rabbit, in vivo, po. Here is the method: The objective of this preliminary experiment was to check the ability of our approach to determine the loading and maintenance doses of the eight compounds to be administered simultaneously by oral route to reproduce in female rabbits targeted serum concentrations. The experiment was carried out on thirty-two 2-wk old female New Zealand white rabbits (INRA 1777 line) randomly allocated to a treatment and control groups of 16 rabbits weighing 309±45g and 298±62g , respectively. The treated rabbits were orally administrated a mixture of the eight compounds at a dosage corresponding to the sum of the loading and daily maintenance doses followed by daily administrations of the maintenance dose for 17 wk (see the “Estimation of the doses” section). The control group was orally administrated the vehicle for the same duration.
The volume of the maintenance dosing solution ( 1mL/kg ) was weekly adjusted to the mean BW estimated from the known pattern of growth of the INRA 1777 rabbit line. Oral dosing and antemortem blood sampling were performed as previously described.
Blood samples were left to clot for about 20–30 min at ambient temperature and centrifuged for 20 min at 3,000×g at 25°C. The separated serum was stored in glass tubes at −20°C until assayed.

Data set [2] is described as follows: Nonlinear mixed effect (NLME) compartmental modeling of merged IV and oral serum concentrations. The note with it: for AUCVO/dose: oral dosing; for tvK12 (distribution rate constant) / tvK21 (distribution rate constant) / tvVc (volume of the central compartment) / tvKabs (rate constant of absorption) / tvK10 (elimination rate constant from the central compartment): population primary parameter, typical value; for tvKabs (rate constant of absorption) / AUCVO: MEHP after oral DEHP; for Volume(s) of the peripheral compartment: for PFOA first peripheral compartment; for AUCIV: dosing time to infinity after intravenous dosing; for AUCVO: dosing time to infinity after oral dosing. From the text:
A nonlinear mixed effect (NLME) modeling approach was used to analyze simultaneously all data obtained from the different rabbits after both IV and oral administrations and to provide robust estimates of the typical TK parameters.
The primary parameters of the model, namely the volume of distribution of the central compartment (V1), the first-order rate constants ( K10 , K12 , K21 , and Kabs plus K13 , K31 for PFOA) and the bioavailability (F) and their associated precisions [standard error (SE)] were estimated by minimizing an objective function value (OFV) expressed as minus twice the log of the likelihood estimation ( −2LL ). […] Marginal likelihood was approximated by using the Laplacian engine by default and, when this engine was unable to determine the SE of the estimate, the Quasi-Random Parametric Expectation Maximization (QRPEM) was selected.
Between subject variability (BSV) of the parameters was measured using the exponential model θparameter_i=θtv_parameter×exp (ηi), where θparameter_i is the parameter estimated for the ith individual, θtv_parameter is the typical population value of the parameter, and ηi is the deviation associated with the ith individual from the corresponding value of the parameter at the population level.
The distribution of ηi was assumed to be normal with a mean of 0 and a variance ω² . BSV was reported as a coefficient of variation (CV) in the original scale CV(%)=100× exp (ω^2)−1 .
The residual variance was modeled using a combined additive and proportional error model Cobsij=Cpredij(1 + ε1ij) + ε2ij, where Cobsij and Cpredij are respectively the jth observed and predicted concentrations for the ith individual, and ε1ij and ε2ij are the multiplicative and additive residual errors.
Secondary parameters were calculated from the population primary parameters.
The clearance values (CL) were estimated using Equation 5: (5) CL=K10×V1, where V1 is the volume of the central compartment and K10 is the elimination rate constant from the central compartment.
The volume of the peripheral compartment (V2) was estimated with Equation 6: (6) V2=V1×(K12/K21), where K12 and K21 are the distribution rate constants between the central and the peripheral compartments.
The clearance of distribution (Q) was estimated using Equation 7: (7) Q=K12×V1, with […] and K12 as defined above.
The volume of distribution associated with the terminal phase was estimated with Equation 10: (10) VZ=CL/λZ, with λZ as defined above.
The AUC was computed as a secondary parameter using Equation 11: (11) AUC=Dose/CL.
The terminal half-life was estimated with Equation 1, as previously described.

[3] abbreviates: female, New Zealand white (INRA 1777 line), rabbit, in vivo.
Where [4] appears, read: female, New Zealand white, rabbit, in vivo.
Setting [5] is: female, New Zealand white, rabbit, in vivo, iv.
Setting [6] is: female, New Zealand white, rabbit, in vivo, po.
[7] abbreviates: population secondary parameter, mean.

Each structure is given as a SMILES string.

Consider `Brc1ccc(Oc2ccc(Br)cc2Br)c(Br)c1` [BDE-47, 2,2′,4,4′-tetrabromodiphenyl ether], for which the concentration at 17 wk in data set [1] was 0.16 ± 0.058 ng/mL. In data set [2] (setting [3]), this compound showed a Vd of 45 L/kg and a k el of 1.8e-05 s⁻¹. In data set [2] (female, New Zealand white (INRA 1777 line), rabbit, in vivo, po, Oral bioavailability (F), NLME model), this compound displayed a bioavailability of more than 85%. In data set [2] (setting [4]), this compound had an MRT of 5.54 days and a half-life of 6.79 days. Further, the clearance in data set [2] (female, New Zealand white, rabbit, in vivo, Clearance, population secondary parameter, mean) is 5.67 mL/min/kg. The compound also showed an AUC in data set [2] (setting [5]) of 29 µM·h. Further, the AUC in data set [2] (setting [6]) worked out at 71 µM·h. The compound further had a bioavailability in data set [2] (female, New Zealand white, rabbit, in vivo, po, Bioavailability, population secondary parameter, mean, as fraction) of 96%. The compound further registered an AUCVO/dose in data set [2] of 2.97 μmol×h/L per μmol/kg BW. Also, in data set [2] (mean), the “tvK12 (distribution rate constant)” value turned out to be 0.0697 h⁻¹, the “tvK21 (distribution rate constant)” value stood at 0.009154 h⁻¹, the “tvVc (volume of the central compartment)” value turned out to be 5.188 L/kg and the “tvKabs (rate constant of absorption)” value amounted to 0.02289 h⁻¹. The “Volume(s) of the peripheral compartment” value in data set [2] (setting [7]) was 39 L/kg.
Consider `O=S(=O)(c1ccc(O)cc1)c1ccc(O)cc1` [BPS, bisphenol S], for which the “Mean serum concentration of (unconjugated) BPS, estimated” value in data set [1] (estimated from total BPS and 7% unconjugated fraction, targeted CSS 1 ng/mL) was 0.98 ng/mL. In data set [2] (population secondary parameter), this compound displayed an AUCIV of 3.3 µM·h and an AUCVO of 3.6 µmol·h/L. Also, the “tvKabs (rate constant of absorption), fixed” value in data set [2] (fixed to 10, estimation of Kabs converging toward infinity) is 10 h⁻¹. The compound further gave an Oral systemic exposure in data set [2] (oral, dose-normalised AUC) of 0.20 μmol/h/L per μmol/kg BW. In data set [2] (mean), the “tvK10 (elimination rate constant from the central compartment)” value came to 1.895 h⁻¹ and the “tvVc (volume of the central compartment)” value stood at 1.681 L/kg. Also, in data set [2] (setting [7]), the MRT amounted to 0.262 days.
Turning to `Clc1c(Cl)c(Cl)c(Cl)c(Cl)c1Cl` [HCB, hexachlorobenzene], the concentration at 17 wk in data set [1] turned out to be 2.9 ± 1.5 ng/mL. Besides, in data set [2] (setting [3]), the VSS is 33 to 45 L/kg, the Vd amounted to 35 L/kg and the k el was 9.74e-07 s⁻¹. For the same compound, the “tvf (ilogit of the oral bioavailability)” value in data set [2] (female, New Zealand white (INRA 1777 line), rabbit, in vivo, po) worked out at 0.03625. In data set [2] (female, New Zealand white (INRA 1777 line), rabbit, in vivo, po, Oral bioavailability (F)), the bioavailability was approximately 50%. Besides, in data set [2] (setting [4]), the Clearance lay in the range of 0.83 to 5.67 mL/min/kg, the “Clearance(s) of distribution” value amounted to 13 mL/min/kg, the clearance is 0.85 mL/min/kg and the half-life was 20 days. The compound further displayed an MRT in data set [2] (female, New Zealand white, rabbit, in vivo, MRT) of more than 33.3 days. Also, the AUC in data set [2] (setting [5]) stood at 4.5 µM·h. The AUC in data set [2] (setting [6]) came to 271 µM·h. Moreover, the bioavailability in data set [2] (female, New Zealand white, rabbit, in vivo, po, Bioavailability) stood at 51%. Also, in data set [2] (mean), the “tvK12 (distribution rate constant)” value is 0.05299 h⁻¹, the “tvK21 (distribution rate constant)” value was 0.03851 h⁻¹, the “tvVc (volume of the central compartment)” value is on record as 14.63 L/kg and the “tvKabs (rate constant of absorption)” value is 0.3488 h⁻¹. Besides, the “Volume(s) of the peripheral compartment” value in data set [2] (setting [7]) is listed as 20 L/kg.
As to `O=S(=O)(O)C(F)(F)C(F)(F)C(F)(F)C(F)(F)C(F)(F)C(F)(F)C(F)(F)C(F)(F)F` [nPFOS, linear isomer of perfluorooctane sulfonate], in data set [2] (NLME model), the MRT is 47.6 days, the “Oral bioavailability (F)” value is “total” and the “Terminal HL” value stood at 33 days. In addition, in data set [2] (population secondary parameter), the AUCIV was 355 µM·h and the AUCVO is on record as 1,246 μmol×h/L. For the same compound, the AUCVO/dose in data set [2] was 3,115 μmol×h/L per μmol/kg BW. In data set [2] (oral, population secondary parameter, mean, as fraction), the bioavailability was determined as 1. In data set [2] (mean), the “tvK10 (elimination rate constant from the central compartment)” value worked out at 0.00111 h⁻¹, the “tvK12 (distribution rate constant)” value was 0.153 h⁻¹, the “tvK21 (distribution rate constant)” value is 0.581 h⁻¹ and the “tvVc (volume of the central compartment)” value is 0.290 L/kg. Moreover, the “tvKabs (rate constant of absorption)” value in data set [2] (mean) came out at 0.252 h⁻¹. In addition, in data set [2] (setting [7]), the Clearance was found to be 0.00533 mL/min/kg, the VSS came to 0.37 L/kg and the “Volume(s) of the peripheral compartment” value is recorded as 0.077 L/kg. This compound also displayed a half-life in data set [2] (terminal, population secondary parameter, mean) of 33 days.

These data come from article PMC8597046, “Use of Mixture Dosing and Nonlinear Mixed Effect Modeling of Eight Environmental Contaminants in Rabbits to Improve Extrapolation Value of Toxicokinetic Data” (Environmental Health Perspectives, 2021).
